In brackets after ≈: the same amount, converted by molar mass. A value given as a limit tells only on which side of the number the result lay.

The results in this text go back to ChEMBL document CHEMBL1147423, “Synthesis and antifungal activities of phenylenedithioureas” (2004).

In one assay the test system is Paraphyton cookei. The experiment in a line: Minimum inhibitory concentration against Microsporum cookei. The assay is classed as functional.
The subject of the next assay is Pseudomonas aeruginosa. The experiment in a line: Minimum inhibitory concentration against Pseudomonas aeruginosae ATCC 27853. Type of assay: functional.
In another assay the test system is Trichophyton benhamiae. Put plainly: Minimum inhibitory concentration against Trichophyton mentagrophytes. Type of assay: functional, Arthroderma benhamiae.
The subject of a further assay is Aspergillus flavus. Put plainly: Minimum inhibitory concentration against Aspergillus flavus. The assay is classed as functional.
The test system of another assay is Aspergillus niger. Put plainly: Minimum inhibitory concentration against Aspergillus niger. Type of assay: functional.
For another assay, the system named is Escherichia coli. The experiment in a line: Minimum inhibitory concentration against Escherichia coli ATCC 25853. Type of assay: functional.
For the next assay, the system named is Nannizzia nana. The experiment in a line: Minimum inhibitory concentration against Microsporum nanum. The assay is classed as functional.
The subject of another assay is Candida albicans. Put plainly: Minimum inhibitory concentration against Candida albicans ATCC 10231. The assay is classed as functional.
The test system of the next assay is Arthroderma uncinatum. Put plainly: Minimum inhibitory concentration against Trichophyton ajelloi. The assay is classed as functional.
Another assay concerns Nannizzia gypsea. Put plainly: Minimum inhibitory concentration Microsporum gypseum. The assay is classed as functional.
The next assay deals with Enterococcus faecalis. Put plainly: Minimum inhibitory concentration against Streptococcus faecalis ATCC 29212. Type of assay: functional.
The test system of a further assay is Staphylococcus aureus. Put plainly: Minimum inhibitory concentration Staphylococcus aureus ATCC 29213. Type of assay: functional.

As usually defined, the MIC is the least concentration at which growth counts as inhibited. Consider `O=C(NNc1ccccc1)c1ccc(NC(=S)Nc2ccc(NC(=S)Nc3ccc(C(=O)NNc4ccccc4)cc3)cc2)cc1`, for which the MIC in the assay with Paraphyton cookei is 16 µg/mL (≈ 24.7 µM); in the assay with Pseudomonas aeruginosa it was 512 µg/mL (≈ 792 µM); against Trichophyton benhamiae, 16 µg/mL (≈ 24.7 µM); with Aspergillus flavus it was not below 512 µg/mL; against Aspergillus niger it was not below 512 µg/mL; in the assay on Escherichia coli, 512 µg/mL (≈ 792 µM). For the same compound, the MIC with Nannizzia nana was 8 µg/mL (≈ 12.4 µM); against Candida albicans it was more than 512 µg/mL; with Arthroderma uncinatum, 128 µg/mL (≈ 198 µM); against Nannizzia gypsea, 64 µg/mL (≈ 98.9 µM); against Enterococcus faecalis it was 512 µg/mL (≈ 792 µM); against Staphylococcus aureus, 128 µg/mL (≈ 198 µM).
As for `O=C(O)c1ccc(N/C(S)=N\c2ccccc2/N=C(/S)Nc2ccc(C(=O)O)c(O)c2)cc1O`, the MIC in the assay on Paraphyton cookei was 32 µg/mL (≈ 64.2 µM); against Pseudomonas aeruginosa, 512 µg/mL (≈ 1030 µM); in the assay with Trichophyton benhamiae, 8 µg/mL (≈ 16 µM); against Aspergillus flavus, not below 512 µg/mL; against Aspergillus niger, not below 512 µg/mL; against Escherichia coli, more than 512 µg/mL. Besides, the MIC is 32 µg/mL (≈ 64.2 µM) against Nannizzia nana; 512 µg/mL (≈ 1030 µM) in the assay with Candida albicans; 32 µg/mL (≈ 64.2 µM) in the assay with Arthroderma uncinatum; 16 µg/mL (≈ 32.1 µM) with Nannizzia gypsea; 512 µg/mL (≈ 1030 µM) with Enterococcus faecalis; more than 512 µg/mL with Staphylococcus aureus.
As for `O=C(NNc1ccccc1)c1ccc(/N=C(\S)Nc2ccc(/N=C(/S)Nc3ccc(C(=O)NNc4ccccc4)c(O)c3)cc2)cc1O`, the MIC with Paraphyton cookei is 64 µg/mL (≈ 94.3 µM); in the assay with Pseudomonas aeruginosa, 512 µg/mL (≈ 754 µM); against Trichophyton benhamiae, 32 µg/mL (≈ 47.1 µM); in the assay on Aspergillus flavus, not below 512 µg/mL; with Aspergillus niger, not below 512 µg/mL; with Escherichia coli, 512 µg/mL (≈ 754 µM). The MIC in the assay on Nannizzia nana came to 64 µg/mL (≈ 94.3 µM); in the assay on Candida albicans it was 512 µg/mL (≈ 754 µM); against Arthroderma uncinatum it was 32 µg/mL (≈ 47.1 µM); in the assay on Nannizzia gypsea it was 128 µg/mL (≈ 189 µM); in the assay on Enterococcus faecalis, 512 µg/mL (≈ 754 µM); against Staphylococcus aureus, 512 µg/mL (≈ 754 µM).
As to `CC(C)OC(=O)c1ccc(/N=C(\S)Nc2ccc(/N=C(/S)Nc3ccc(C(=O)OC(C)C)c(O)c3)cc2)cc1O`, the MIC is 128 µg/mL (≈ 220 µM) with Paraphyton cookei; 512 µg/mL (≈ 879 µM) with Pseudomonas aeruginosa; more than 512 µg/mL with Trichophyton benhamiae; not below 512 µg/mL against Aspergillus flavus; not below 512 µg/mL against Aspergillus niger; more than 512 µg/mL against Escherichia coli. For the same compound, the MIC with Nannizzia nana was 128 µg/mL (≈ 220 µM); with Candida albicans it was more than 512 µg/mL; against Arthroderma uncinatum, 128 µg/mL (≈ 220 µM); against Nannizzia gypsea it was 256 µg/mL (≈ 439 µM); against Enterococcus faecalis, 512 µg/mL (≈ 879 µM); with Staphylococcus aureus it was more than 512 µg/mL.
